The target of one test is Myosin-14 (Homo sapiens, UniProt Q7Z406).
For another test, the target named is T1, Pyridoxal kinase (Homo sapiens, UniProt O00764).
T1 sequence (O00764 whole entry): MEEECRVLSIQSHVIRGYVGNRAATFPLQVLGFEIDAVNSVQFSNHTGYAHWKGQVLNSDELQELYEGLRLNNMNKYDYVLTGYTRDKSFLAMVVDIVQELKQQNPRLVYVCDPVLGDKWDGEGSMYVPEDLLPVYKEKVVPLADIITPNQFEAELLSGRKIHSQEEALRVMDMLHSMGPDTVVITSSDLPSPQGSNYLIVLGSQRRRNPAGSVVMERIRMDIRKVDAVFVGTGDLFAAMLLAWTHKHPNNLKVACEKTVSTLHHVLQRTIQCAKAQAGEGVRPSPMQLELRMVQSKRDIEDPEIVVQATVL

The target in the next test is T2, Heme oxygenase 2 (Homo sapiens, UniProt P30519).
T2 sequence (P30519 whole entry): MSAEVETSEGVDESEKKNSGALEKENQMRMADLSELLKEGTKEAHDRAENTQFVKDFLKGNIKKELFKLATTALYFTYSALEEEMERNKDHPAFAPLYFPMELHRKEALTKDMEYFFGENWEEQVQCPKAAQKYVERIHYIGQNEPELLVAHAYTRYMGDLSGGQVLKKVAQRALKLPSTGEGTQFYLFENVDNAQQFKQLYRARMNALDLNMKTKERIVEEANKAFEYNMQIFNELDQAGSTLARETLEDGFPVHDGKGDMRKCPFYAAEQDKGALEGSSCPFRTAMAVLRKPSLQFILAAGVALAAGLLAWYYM

Test [1] addresses Casein kinase I isoform alpha (Homo sapiens, UniProt P48729).
Test [2] has as its target T3, Serine/threonine-protein kinase STK11 (Homo sapiens, UniProt Q15831).
T3 sequence (Q15831 whole entry): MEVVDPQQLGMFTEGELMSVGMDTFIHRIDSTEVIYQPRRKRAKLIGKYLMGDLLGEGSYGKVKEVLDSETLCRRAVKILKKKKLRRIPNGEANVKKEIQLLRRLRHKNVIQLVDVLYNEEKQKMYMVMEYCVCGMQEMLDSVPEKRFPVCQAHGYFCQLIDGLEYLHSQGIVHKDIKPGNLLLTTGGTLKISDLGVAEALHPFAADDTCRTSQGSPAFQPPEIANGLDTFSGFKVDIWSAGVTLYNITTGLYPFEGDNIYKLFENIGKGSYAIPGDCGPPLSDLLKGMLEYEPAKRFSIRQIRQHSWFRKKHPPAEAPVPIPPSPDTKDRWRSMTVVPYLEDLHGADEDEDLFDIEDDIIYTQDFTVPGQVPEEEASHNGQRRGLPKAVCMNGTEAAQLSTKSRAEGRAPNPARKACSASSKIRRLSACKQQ

The target in test [3] is Cyclin-dependent kinase 4 (Homo sapiens, UniProt P11802).
The target in the next test is T4, Ephrin type-B receptor 4 (Homo sapiens, UniProt P54760).
T4 sequence (P54760 whole entry): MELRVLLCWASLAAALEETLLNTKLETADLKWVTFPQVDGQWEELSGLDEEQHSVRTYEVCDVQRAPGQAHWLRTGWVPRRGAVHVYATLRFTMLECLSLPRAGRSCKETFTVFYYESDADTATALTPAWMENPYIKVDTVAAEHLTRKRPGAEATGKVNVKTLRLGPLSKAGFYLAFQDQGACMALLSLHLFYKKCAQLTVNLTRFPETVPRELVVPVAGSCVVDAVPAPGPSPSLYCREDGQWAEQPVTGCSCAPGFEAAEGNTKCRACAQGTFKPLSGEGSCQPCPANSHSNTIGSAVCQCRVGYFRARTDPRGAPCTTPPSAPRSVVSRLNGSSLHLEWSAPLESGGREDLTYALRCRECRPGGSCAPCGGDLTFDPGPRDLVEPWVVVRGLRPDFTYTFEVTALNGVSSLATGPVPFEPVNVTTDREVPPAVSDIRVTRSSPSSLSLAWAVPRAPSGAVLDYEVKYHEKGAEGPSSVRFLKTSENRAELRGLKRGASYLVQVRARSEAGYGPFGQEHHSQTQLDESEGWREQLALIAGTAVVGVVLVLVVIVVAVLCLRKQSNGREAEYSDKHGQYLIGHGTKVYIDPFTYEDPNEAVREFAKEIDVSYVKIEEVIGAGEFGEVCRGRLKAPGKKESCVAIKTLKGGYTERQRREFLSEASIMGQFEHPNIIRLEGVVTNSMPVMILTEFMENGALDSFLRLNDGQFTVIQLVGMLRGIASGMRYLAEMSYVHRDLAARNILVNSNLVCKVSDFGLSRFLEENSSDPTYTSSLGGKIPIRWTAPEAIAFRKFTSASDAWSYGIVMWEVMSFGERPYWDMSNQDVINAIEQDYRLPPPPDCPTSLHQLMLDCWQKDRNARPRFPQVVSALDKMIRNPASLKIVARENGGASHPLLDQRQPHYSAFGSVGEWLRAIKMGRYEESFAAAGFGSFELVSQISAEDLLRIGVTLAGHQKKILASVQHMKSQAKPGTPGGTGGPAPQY

Test [4] deals with T5, MAP/microtubule affinity-regulating kinase 4 (Homo sapiens, UniProt Q96L34).
T5 sequence (Q96L34 whole entry): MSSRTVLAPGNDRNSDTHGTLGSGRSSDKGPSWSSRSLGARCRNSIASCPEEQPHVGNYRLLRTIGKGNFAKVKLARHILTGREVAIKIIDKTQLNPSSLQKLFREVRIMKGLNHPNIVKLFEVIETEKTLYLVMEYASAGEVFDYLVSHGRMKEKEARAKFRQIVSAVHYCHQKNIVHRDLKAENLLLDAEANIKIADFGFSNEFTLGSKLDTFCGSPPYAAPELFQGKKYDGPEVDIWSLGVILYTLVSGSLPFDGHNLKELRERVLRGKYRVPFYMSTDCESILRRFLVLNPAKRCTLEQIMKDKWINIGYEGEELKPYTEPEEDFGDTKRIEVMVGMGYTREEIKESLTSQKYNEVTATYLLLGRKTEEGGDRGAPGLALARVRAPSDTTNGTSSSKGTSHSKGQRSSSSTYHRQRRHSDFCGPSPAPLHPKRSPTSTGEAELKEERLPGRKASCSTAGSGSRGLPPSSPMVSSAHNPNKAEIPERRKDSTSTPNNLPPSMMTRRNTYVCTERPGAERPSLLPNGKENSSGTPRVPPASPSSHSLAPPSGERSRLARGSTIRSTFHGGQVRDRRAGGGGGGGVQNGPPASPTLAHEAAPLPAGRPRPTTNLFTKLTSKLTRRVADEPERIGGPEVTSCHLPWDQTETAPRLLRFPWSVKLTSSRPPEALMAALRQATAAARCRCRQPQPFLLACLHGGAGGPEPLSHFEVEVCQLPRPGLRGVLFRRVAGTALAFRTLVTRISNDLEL

SMILES strings stand for the structures. Calls of active or inactive are those of the source.
Also: in the data inactive means no Kd found up to 30 µM.

Chain of Myosin-14 (Q7Z406 whole entry): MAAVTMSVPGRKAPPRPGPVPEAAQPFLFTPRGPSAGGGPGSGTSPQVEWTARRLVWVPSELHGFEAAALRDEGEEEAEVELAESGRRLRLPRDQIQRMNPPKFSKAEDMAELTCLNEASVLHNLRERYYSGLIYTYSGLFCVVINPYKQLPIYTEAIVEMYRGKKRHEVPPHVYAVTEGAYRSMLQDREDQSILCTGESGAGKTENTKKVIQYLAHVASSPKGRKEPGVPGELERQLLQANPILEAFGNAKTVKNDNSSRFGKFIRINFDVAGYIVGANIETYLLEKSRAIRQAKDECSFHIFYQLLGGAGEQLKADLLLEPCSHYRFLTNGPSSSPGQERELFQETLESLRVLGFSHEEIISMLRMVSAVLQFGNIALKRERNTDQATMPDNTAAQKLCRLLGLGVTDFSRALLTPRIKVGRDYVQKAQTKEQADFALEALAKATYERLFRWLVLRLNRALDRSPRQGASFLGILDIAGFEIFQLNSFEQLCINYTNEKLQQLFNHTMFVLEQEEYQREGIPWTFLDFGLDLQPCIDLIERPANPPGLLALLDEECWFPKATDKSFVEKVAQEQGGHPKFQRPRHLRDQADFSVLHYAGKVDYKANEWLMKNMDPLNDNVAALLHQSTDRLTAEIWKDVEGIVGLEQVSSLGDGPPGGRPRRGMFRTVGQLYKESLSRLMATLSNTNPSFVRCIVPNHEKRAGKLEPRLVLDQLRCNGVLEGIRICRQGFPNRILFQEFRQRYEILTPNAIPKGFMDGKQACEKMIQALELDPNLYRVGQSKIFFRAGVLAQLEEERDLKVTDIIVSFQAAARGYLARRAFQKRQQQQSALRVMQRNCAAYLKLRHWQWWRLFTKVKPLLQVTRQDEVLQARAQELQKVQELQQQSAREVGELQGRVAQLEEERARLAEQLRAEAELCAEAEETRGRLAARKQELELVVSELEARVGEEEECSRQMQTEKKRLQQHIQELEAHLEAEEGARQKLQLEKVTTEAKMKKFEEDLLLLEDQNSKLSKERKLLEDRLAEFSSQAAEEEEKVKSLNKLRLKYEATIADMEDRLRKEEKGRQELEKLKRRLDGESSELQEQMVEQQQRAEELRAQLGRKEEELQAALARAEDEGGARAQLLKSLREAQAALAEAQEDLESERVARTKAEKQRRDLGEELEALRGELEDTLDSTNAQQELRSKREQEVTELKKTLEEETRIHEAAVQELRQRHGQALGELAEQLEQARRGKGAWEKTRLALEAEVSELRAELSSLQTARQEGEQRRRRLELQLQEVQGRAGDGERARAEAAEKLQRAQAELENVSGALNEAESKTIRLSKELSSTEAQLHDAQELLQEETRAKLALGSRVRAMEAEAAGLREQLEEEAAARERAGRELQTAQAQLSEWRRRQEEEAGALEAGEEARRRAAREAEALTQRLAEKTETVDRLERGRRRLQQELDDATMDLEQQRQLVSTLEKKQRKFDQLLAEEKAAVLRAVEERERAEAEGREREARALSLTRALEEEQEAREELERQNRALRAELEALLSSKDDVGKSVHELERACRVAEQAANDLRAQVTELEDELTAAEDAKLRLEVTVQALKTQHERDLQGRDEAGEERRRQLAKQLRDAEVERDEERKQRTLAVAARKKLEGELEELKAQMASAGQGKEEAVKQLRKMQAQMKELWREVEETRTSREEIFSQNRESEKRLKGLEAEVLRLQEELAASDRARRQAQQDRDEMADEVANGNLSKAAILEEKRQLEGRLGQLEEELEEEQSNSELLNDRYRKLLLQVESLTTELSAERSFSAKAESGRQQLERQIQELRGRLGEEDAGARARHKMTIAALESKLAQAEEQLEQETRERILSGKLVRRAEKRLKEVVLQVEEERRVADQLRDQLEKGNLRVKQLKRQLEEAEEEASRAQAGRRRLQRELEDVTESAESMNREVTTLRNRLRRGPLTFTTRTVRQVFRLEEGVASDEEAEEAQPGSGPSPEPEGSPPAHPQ
Chain of Cyclin-dependent kinase 4 (P11802 whole entry): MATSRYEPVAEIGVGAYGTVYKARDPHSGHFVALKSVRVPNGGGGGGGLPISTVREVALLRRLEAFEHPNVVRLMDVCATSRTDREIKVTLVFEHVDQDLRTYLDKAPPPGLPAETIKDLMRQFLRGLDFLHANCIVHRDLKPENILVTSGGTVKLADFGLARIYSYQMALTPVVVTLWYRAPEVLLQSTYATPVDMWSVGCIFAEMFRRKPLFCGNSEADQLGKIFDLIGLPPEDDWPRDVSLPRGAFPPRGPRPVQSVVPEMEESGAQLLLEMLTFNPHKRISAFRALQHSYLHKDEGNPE
Chain of Casein kinase I isoform alpha (P48729 whole entry, canonical isoform): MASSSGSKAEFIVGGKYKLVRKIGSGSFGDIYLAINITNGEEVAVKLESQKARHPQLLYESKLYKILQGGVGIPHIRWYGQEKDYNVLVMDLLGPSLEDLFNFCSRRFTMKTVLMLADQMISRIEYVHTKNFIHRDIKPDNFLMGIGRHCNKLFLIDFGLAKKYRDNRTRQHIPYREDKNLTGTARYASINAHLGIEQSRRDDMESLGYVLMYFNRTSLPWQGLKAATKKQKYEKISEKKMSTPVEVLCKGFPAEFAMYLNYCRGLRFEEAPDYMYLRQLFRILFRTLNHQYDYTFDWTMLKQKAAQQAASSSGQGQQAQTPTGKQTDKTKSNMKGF

On to `Cc1cn(-c2cc(NC(=O)c3ccc(C)c(Nc4nccc(-c5cccnc5)n4)c3)cc(C(F)(F)F)c2)cn1` [NILOTINIB], for which the Kd on Myosin-14, at Pyridoxal kinase and at Heme oxygenase 2 was > 30 µM (inactive) in each case.

Take `C=CC(=O)N1CCC(Oc2cc3c(Nc4ccc(Cl)c(Cl)c4F)ncnc3cc2OC)CC1` [POZIOTINIB]: the Kd in test [1] is > 30 µM (inactive); in test [2] it was > 30 µM (inactive); in test [3], > 30 µM (inactive); at Pyridoxal kinase, > 30 µM (inactive); at Ephrin type-B receptor 4, 0.34 µM (active); in test [4] it was > 30 µM (inactive). Also, the Kd on Heme oxygenase 2 is > 30 µM (inactive).

As to `Cc1c(F)cc(C(=O)NC2CC2)cc1-c1ccc(C(=O)NCC(C)(C)C)cn1` [LOSMAPIMOD], the Kd (in test [1]; in test [2]; in test [3]; on Pyridoxal kinase; at Ephrin type-B receptor 4; in test [4]) was > 30 µM (inactive) throughout. Moreover, the Kd on Heme oxygenase 2 is > 30 µM (inactive).

As to `Nc1nc(N)c2nc(-c3cccc(O)c3)c(-c3cccc(O)c3)nc2n1` [TG100-115], the Kd is 5.25 µM (active) at Pyridoxal kinase and > 30 µM (inactive) at Heme oxygenase 2.

Take `CN1CCN(c2ccc3nc(-c4c(N)c5c(F)cccc5[nH]c4=O)[nH]c3c2)CC1` [DOVITINIB]: the Kd at Myosin-14, at Pyridoxal kinase and on Heme oxygenase 2 was > 30 µM (inactive) throughout.

As for `Cc1cc(Nc2cc(N3CCN(C)CC3)nc(/C=C/c3ccccc3)n2)n[nH]1` [ENMD-2076], the Kd (at Myosin-14; in test [3]; on Pyridoxal kinase; on Ephrin type-B receptor 4; in test [4]; on Heme oxygenase 2) was > 30 µM (inactive) each time.

`COc1cc(N2CCC(N3CCN(C)CC3)CC2)ccc1Nc1ncnc(Nc2ccccc2S(=O)(=O)C(C)C)n1` [ASP-3026]: the Kd (in test [1]; in test [2]; in test [3]; at Pyridoxal kinase; on Ephrin type-B receptor 4; in test [4]) was > 30 µM (inactive) in each case. For the same compound, the Kd at Heme oxygenase 2 is > 30 µM (inactive).

Regarding `Cc1nc(N)sc1-c1ccnc(Nc2ccc(N3CCOCC3)cc2)n1` [CYC-116], the Kd was > 30 µM (inactive) at Myosin-14; > 30 µM (inactive) in test [2]; > 30 µM (inactive) at Pyridoxal kinase; 4.61 µM (active) on Ephrin type-B receptor 4; > 30 µM (inactive) in test [4]; > 30 µM (inactive) on Heme oxygenase 2.

`CN1CCC(COc2cnc(-c3cccc(Cn4nc(-c5cccc(C#N)c5)ccc4=O)c3)nc2)CC1` [TEPOTINIB]: the Kd (in test [1]; in test [2]; in test [3]; on Pyridoxal kinase; on Ephrin type-B receptor 4; in test [4]) was > 30 µM (inactive) each time. On Heme oxygenase 2, the Kd was > 30 µM (inactive).

As to `CCn1c(-c2nonc2N)nc2c(C#CC(C)(C)O)ncc(OC[C@H]3CCCNC3)c21` [GSK-690693], the Kd at Myosin-14, on Pyridoxal kinase and on Heme oxygenase 2 was > 30 µM (inactive) each time.

Regarding `CCc1cnn2c(NCc3ccc[n+]([O-])c3)cc(N3CCCC[C@H]3CCO)nc12` [DINACICLIB], the Kd at Myosin-14 is > 30 µM (inactive); in test [2], 0.497 µM (active); on Pyridoxal kinase, > 30 µM (inactive); at Ephrin type-B receptor 4, > 30 µM (inactive); in test [4], > 30 µM (inactive); at Heme oxygenase 2 it was > 30 µM (inactive).

In the case of `COc1cc(OC)c(/C=C/S(=O)(=O)Cc2ccc(OC)c(NCC(=O)O)c2)c(OC)c1` [RIGOSERTIB], the Kd (in test [1]; in test [2]; in test [3]; at Pyridoxal kinase; at Ephrin type-B receptor 4; in test [4]) was > 30 µM (inactive) throughout. Further, the Kd at Heme oxygenase 2 was > 30 µM (inactive).

In the case of `Cc1cc(-c2cc(O)ccc2Cl)cc2nnc(Nc3ccc(OCCN4CCCC4)cc3)nc12`, the Kd was > 30 µM (inactive) in test [1]; > 30 µM (inactive) in test [2]; > 30 µM (inactive) in test [3]; > 30 µM (inactive) on Pyridoxal kinase; 0.0009 µM (active) on Ephrin type-B receptor 4; > 30 µM (inactive) in test [4]. Besides, on Heme oxygenase 2, the Kd is > 30 µM (inactive).

`CC[C@H](Nc1ncnc2[nH]cnc12)c1nc2cccc(F)c2c(=O)n1-c1ccccc1` [IDELALISIB]: the Kd (in test [1]; in test [2]; in test [3]; at Pyridoxal kinase; on Ephrin type-B receptor 4; in test [4]) was > 30 µM (inactive) throughout. Besides, the Kd on Heme oxygenase 2 is > 30 µM (inactive).

Turning to `Cc1ccc(S(=O)(=O)Nc2nc3ccccc3nc2Nc2ccc3nsnc3c2)cc1`, the Kd (in test [1]; in test [2]; in test [3]; on Pyridoxal kinase; on Ephrin type-B receptor 4; in test [4]) was > 30 µM (inactive) in each case. Further, the Kd at Heme oxygenase 2 is > 30 µM (inactive).

For `CN(C)C(=O)c1cc2cnc(Nc3ccc(N4CCNCC4)cn3)nc2n1C1CCCC1` [RIBOCICLIB], the Kd (in test [1]; in test [2]; on Pyridoxal kinase; on Ephrin type-B receptor 4; in test [4]; at Heme oxygenase 2) was > 30 µM (inactive) in each case.

One may read the Kd as the constant that tells how readily two partners part at equilibrium.

(Values after ChEMBL document CHEMBL3991601, “The target landscape of clinical kinase drugs” (Science, 2017).)
